Among the data in patent publication US5668152A, “Protein kinase C inhibitors” (priority 1995, dated 1997) are isozyme selectivity and IC50 values, retold here.

Each structure is given as a SMILES string. “Also recorded” adds a separate entry of the source. Read-outs that look alike come from different tables or passages of the source.

The test system of one test is PKC isozymes. Particulars: cited from earlier work.
The next test addresses protein kinase C beta-2 (Homo sapiens, UniProt P05771). Kind of test: PKC Enzyme assay, beta II isozyme. In kind it is biochemical. As to conditions: PKC beta-2; 30 μM ATP, 30° C., 10 minutes; read-out: IC50 β2.
The target in the next test is protein kinase C beta-1 (Homo sapiens, UniProt P05771). The test is described as follows: PKC Enzyme assay, beta I isozyme. The format is biochemical. Particulars: PKC beta-1; 30 μM ATP, 30° C., 10 minutes; read-out: IC50 β1.
protein kinase C beta-1, sequence (P05771 whole entry): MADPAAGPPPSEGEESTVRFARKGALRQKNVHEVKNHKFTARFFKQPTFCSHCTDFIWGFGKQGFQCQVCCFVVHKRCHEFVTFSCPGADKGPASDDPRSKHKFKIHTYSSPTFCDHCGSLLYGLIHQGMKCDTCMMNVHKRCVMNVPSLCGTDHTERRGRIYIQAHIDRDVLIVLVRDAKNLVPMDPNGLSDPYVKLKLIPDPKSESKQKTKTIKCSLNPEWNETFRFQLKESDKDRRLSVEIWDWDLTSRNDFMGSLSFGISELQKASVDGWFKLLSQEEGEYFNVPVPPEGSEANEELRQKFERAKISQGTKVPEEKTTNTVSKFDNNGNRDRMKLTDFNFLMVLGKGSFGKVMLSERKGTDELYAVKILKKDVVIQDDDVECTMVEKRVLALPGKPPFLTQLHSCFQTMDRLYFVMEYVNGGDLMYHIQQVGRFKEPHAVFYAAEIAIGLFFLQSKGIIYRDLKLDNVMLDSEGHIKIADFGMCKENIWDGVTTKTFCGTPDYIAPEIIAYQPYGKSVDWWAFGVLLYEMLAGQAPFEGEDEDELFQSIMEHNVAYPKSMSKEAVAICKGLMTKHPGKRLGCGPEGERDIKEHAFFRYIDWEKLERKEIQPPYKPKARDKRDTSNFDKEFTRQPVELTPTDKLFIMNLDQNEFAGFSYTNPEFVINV
A further test concerns the target protein kinase C alpha (Homo sapiens, UniProt P17252). The test is described as follows: PKC Enzyme assay, alpha isozyme. The format is biochemical. Particulars: PKC alpha; 30 μM ATP, 30° C., 10 minutes; read-out: IC50 α.
The target of another test is T1, protein kinase C zeta (Homo sapiens, UniProt Q05513).
T1 sequence (Q05513 1-592): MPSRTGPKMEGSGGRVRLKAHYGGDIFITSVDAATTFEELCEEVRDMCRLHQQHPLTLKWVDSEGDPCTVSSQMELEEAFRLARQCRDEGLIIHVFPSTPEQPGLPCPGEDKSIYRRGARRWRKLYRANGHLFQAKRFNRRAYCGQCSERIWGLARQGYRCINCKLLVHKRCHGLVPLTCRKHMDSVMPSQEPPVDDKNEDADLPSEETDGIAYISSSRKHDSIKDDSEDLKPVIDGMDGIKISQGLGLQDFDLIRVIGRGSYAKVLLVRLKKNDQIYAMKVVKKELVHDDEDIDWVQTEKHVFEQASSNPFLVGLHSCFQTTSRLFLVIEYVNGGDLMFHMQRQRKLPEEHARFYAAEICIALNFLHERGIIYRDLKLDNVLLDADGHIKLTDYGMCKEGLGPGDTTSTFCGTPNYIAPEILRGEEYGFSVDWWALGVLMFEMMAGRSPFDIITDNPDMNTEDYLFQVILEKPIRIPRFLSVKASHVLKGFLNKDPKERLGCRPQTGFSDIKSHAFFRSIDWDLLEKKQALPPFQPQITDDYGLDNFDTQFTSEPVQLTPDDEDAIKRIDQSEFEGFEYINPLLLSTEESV
Kind of test: PKC Enzyme assay, zeta isozyme. The format is biochemical. Particulars: PKC zeta; 30 μM ATP, 30° C., 10 minutes; read-out: IC50 ζ.

A further test concerns the target protein kinase C delta (Homo sapiens, UniProt Q05655). The test is described as follows: biochemical. As to conditions: PKC delta; 30 μM ATP, 30° C., 10 minutes; read-out: IC50 δ.
The target of the next test is protein kinase C gamma (Homo sapiens, UniProt P05129). Kind of test: PKC Enzyme assay, gamma isozyme. In kind it is biochemical. Particulars: PKC gamma; 30 μM ATP, 30° C., 10 minutes; read-out: IC50 γ.
The next test has as its target T2, protein kinase C epsilon (Homo sapiens, UniProt Q02156).
T2 sequence (Q02156 1-737): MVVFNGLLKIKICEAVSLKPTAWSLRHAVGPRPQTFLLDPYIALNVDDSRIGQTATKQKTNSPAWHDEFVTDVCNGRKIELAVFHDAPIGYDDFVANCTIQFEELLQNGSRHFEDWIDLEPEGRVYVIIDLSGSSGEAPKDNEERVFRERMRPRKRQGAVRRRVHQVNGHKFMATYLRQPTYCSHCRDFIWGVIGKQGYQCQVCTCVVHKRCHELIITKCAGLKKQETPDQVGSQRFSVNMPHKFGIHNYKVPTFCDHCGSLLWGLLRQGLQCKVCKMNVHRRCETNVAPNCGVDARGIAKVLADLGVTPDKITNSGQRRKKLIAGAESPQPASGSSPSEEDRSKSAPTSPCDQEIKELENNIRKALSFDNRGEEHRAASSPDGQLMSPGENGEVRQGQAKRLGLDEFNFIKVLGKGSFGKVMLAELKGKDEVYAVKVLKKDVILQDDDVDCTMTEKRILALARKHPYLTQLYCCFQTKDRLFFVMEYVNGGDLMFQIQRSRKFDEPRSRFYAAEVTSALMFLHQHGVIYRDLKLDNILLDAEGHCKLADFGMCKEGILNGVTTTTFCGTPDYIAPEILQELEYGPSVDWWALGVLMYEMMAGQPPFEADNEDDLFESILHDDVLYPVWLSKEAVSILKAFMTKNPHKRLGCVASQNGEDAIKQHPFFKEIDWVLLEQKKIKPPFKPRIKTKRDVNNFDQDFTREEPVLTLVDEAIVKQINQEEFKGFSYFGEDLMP
Kind of test: PKC Enzyme assay, epsilon isozyme. In kind it is biochemical. As to conditions: PKC epsilon; 30 μM ATP, 30° C., 10 minutes; read-out: IC50 ε.

The target in the next test is protein kinase C eta (Homo sapiens, UniProt P24723). Kind of test: PKC Enzyme assay, eta isozyme. The format is biochemical. As to conditions: PKC eta; 30 μM ATP, 30° C., 10 minutes; read-out: IC50 η.
protein kinase C eta, sequence (P24723 whole entry): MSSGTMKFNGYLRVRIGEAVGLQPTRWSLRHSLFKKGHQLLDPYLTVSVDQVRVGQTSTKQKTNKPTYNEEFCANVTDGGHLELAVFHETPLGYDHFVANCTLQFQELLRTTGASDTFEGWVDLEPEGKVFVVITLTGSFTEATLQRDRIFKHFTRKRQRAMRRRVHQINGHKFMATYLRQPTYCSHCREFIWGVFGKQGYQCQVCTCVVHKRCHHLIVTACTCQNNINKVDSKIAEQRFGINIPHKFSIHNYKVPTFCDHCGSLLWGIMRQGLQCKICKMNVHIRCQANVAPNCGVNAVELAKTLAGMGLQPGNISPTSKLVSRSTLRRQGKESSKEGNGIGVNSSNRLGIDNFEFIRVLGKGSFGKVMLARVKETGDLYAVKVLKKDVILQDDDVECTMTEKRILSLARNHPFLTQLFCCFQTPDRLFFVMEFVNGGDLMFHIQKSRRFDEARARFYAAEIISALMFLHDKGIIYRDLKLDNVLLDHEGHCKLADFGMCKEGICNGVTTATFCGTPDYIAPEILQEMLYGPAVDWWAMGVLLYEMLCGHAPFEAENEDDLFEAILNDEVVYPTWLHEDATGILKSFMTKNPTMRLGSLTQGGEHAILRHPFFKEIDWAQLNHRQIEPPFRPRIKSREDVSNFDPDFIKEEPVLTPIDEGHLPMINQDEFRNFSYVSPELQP

protein kinase C delta, sequence (Q05655 whole entry): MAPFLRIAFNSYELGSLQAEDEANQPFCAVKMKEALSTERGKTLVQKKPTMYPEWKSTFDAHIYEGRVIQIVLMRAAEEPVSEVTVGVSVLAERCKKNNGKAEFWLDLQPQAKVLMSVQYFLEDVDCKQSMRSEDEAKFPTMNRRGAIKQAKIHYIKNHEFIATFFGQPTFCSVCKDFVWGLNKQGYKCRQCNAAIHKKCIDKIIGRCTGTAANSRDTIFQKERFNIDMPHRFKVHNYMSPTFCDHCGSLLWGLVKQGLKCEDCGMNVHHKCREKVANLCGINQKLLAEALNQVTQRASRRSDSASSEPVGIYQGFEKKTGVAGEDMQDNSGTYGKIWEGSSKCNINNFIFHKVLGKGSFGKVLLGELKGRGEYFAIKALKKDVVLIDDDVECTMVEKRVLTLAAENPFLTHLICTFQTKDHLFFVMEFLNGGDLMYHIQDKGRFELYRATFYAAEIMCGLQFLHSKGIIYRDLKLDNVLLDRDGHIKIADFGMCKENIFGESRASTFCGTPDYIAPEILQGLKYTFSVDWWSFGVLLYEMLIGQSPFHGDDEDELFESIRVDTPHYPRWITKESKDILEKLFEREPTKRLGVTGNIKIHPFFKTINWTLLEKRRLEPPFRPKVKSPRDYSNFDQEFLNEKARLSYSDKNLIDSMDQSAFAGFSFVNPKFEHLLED
protein kinase C beta-2, sequence (P05771 1-673 isoform P05771-2): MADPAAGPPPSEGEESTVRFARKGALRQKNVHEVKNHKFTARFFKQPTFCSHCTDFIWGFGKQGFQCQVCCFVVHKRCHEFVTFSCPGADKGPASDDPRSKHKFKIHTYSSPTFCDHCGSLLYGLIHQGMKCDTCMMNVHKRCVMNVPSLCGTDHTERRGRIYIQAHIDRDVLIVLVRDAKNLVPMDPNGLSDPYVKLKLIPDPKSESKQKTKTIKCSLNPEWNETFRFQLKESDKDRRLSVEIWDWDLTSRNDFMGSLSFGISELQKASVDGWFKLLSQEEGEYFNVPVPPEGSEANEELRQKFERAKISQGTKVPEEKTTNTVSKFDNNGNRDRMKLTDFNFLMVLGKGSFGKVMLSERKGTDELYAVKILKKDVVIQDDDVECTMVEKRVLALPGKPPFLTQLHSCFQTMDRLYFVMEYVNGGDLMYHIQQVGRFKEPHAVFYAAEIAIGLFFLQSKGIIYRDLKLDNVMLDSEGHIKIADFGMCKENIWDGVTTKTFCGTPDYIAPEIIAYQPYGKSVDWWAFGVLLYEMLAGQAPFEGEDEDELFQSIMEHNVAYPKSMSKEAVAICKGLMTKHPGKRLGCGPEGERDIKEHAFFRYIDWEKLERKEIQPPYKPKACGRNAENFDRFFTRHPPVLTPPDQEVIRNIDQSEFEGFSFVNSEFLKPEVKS

For `CN(C)CCCn1cc(C2=C(c3c[nH]c4ccccc34)C(=O)NC2=O)c2ccccc21` [3-[1-(3-dimethylaminopropyl)-indol-3-yl]-4-(1H-indol-3-yl)-1H-pyrrole-2,5-dione], the isozyme selectivity entry in the test with PKC isozymes (Martiny-Baron et al. (1993)) was “slight selectivity for isozymes, alpha and beta versus delta, epsilon, and zeta; also recorded: no differences in the selectivity between alpha and beta-1 isozymes”; in the test on PKC isozymes (Toullec et al. (1991)) it was “slight selectivity for the calcium dependent isozymes; also recorded: no isozyme selectivity between alpha, beta-1, beta-2, and gamma”.

In the case of `Cn1cc(C2=C(c3cn(CCOC4C[C@H](N=[N+]=[N-])[C@@H](CO)O4)c4ccccc34)C(=O)NC2=O)c2ccccc21` (some centres unmarked) [Example 61], the IC50 on protein kinase C beta-2 is 0.041 µM; on protein kinase C beta-1, 0.16 µM; at protein kinase C alpha, 3.6 µM; at protein kinase C zeta it was 20 µM; on protein kinase C delta, 3.2 µM; on protein kinase C gamma, 4.8 µM. Further, the IC50 at protein kinase C epsilon was 20 µM; on protein kinase C eta, 0.75 µM.

Turning to `Cn1cc(C2=C(c3cn(CCOC4C[C@@H](N=[N+]=[N-])[C@@H](CO)O4)c4ccccc34)C(=O)NC2=O)c2ccccc21` (some centres unmarked) [Example 62], the IC50 on protein kinase C beta-2 came to 0.1 µM; on protein kinase C beta-1, 0.2 µM; at protein kinase C alpha, 4.4 µM; on protein kinase C zeta, 41 µM; at protein kinase C delta, 3.9 µM; on protein kinase C gamma, 5.2 µM. Also, the IC50 on protein kinase C epsilon stood at 42 µM; on protein kinase C eta, 2.6 µM.

For the compound `Cn1cc(C2=C(c3cn(CCOC4C[C@H](N)[C@@H](CO)O4)c4ccccc34)C(=O)NC2=O)c2ccccc21` (some centres unmarked) [Example 63], the IC50 on protein kinase C beta-2 was 0.049 µM; at protein kinase C beta-1 it was 0.13 µM; on protein kinase C alpha, 1.7 µM; at protein kinase C zeta, 50 µM; at protein kinase C delta, 1.6 µM; on protein kinase C gamma, 4 µM. In addition, the IC50 on protein kinase C epsilon stood at 3.6 µM; on protein kinase C eta, 0.14 µM.

In the case of `Cn1cc(C2=C(c3cn(C4CCOC4)c4ccccc34)C(=O)NC2=O)c2ccccc21` (centres unmarked) [Example 64], the half-maximal inhibitory concentration (IC50) at protein kinase C beta-2 turned out to be 0.005 µM; on protein kinase C beta-1, 0.005 µM; at protein kinase C alpha, 0.16 µM; on protein kinase C zeta, 50 µM; on protein kinase C delta, 0.16 µM; on protein kinase C gamma it was 0.28 µM. The IC50 was 0.8 µM at protein kinase C epsilon and 0.04 µM at protein kinase C eta.

`Cn1cc(C2=C(c3cn(CCOC4O[C@H](CO)[C@@H](O)[C@@H](N)[C@H]4O)c4ccccc34)C(=O)NC2=O)c2ccccc21` (some centres unmarked) [Example 67]: the half-inhibitory concentration (IC50) amounted to 0.2 µM at protein kinase C beta-2; 0.3 µM on protein kinase C beta-1; 6.6 µM on protein kinase C alpha; 47 µM at protein kinase C zeta; 4.1 µM on protein kinase C delta; 8.2 µM at protein kinase C gamma. The figures for the 50% inhibitory concentration (IC50) at protein kinase C epsilon and on protein kinase C eta were 38 µM and 2.6 µM, respectively.

For the compound `CN1CCC(Cn2cc(C3=C(c4cn(C)c5ccccc45)C(=O)NC3=O)c3ccccc32)CC1` [Example 68, 3-(1-Methyl-indol-3-yl)-4-[1-(1-methyl-piperidin-4-ylmethylene)-indol-3-yl]-1H-pyrrole-2,5-dione], the IC50 on protein kinase C beta-2 came to 0.033 µM; at protein kinase C beta-1, 0.047 µM; at protein kinase C alpha it was 1.4 µM; on protein kinase C zeta, 9.8 µM; on protein kinase C delta, 1.9 µM; on protein kinase C gamma, 2.4 µM. In addition, the IC50 on protein kinase C epsilon turned out to be 4.6 µM; on protein kinase C eta, 0.11 µM.

In the case of `CCOC(=O)N1CCC(Cn2cc(C3=C(c4cn(C)c5ccccc45)C(=O)NC3=O)c3ccccc32)CC1` [Example 69, 3-[1-(1N-ethycarbomate-piperidin-4-yl-methylene)-indol-3-yl]-4-[1-methyindol-3-yl]-1H-pyrrole-2,5-dione], the IC50 at protein kinase C beta-2 was 0.21 µM; at protein kinase C beta-1, 0.39 µM; on protein kinase C alpha, 6.5 µM; on protein kinase C zeta it was greater than 100 µM; at protein kinase C delta it was 7.3 µM; on protein kinase C gamma it was 8.2 µM. For the same compound, the IC50 was greater than 100 µM at protein kinase C epsilon and 3.1 µM at protein kinase C eta.

As for `CC(=O)NCC1OC(OCCCCn2cc(C3=C(c4cn(C)c5ccccc45)C(=O)N(C(C)=O)C3=O)c3ccccc32)CC1OC(C)=O` (centres unmarked) [Example 70], the IC50 was 0.19 µM at protein kinase C beta-2; 0.32 µM at protein kinase C beta-1; 3.3 µM at protein kinase C alpha; 37 µM on protein kinase C zeta; 3.2 µM at protein kinase C delta; 3 µM at protein kinase C gamma. The IC50 at protein kinase C epsilon turned out to be 70 µM; on protein kinase C eta it was 1.4 µM.

`Cn1cc(C2=C(c3cn(C4CN(C(c5ccccc5)c5ccccc5)C4)c4ccccc34)C(=O)NC2=O)c2ccccc21` [Example 72, 3-[1-(Benzhydryl-azetidin-3-yl)-indol-3-yl)-4-(1-methyl-indol-3-yl)-1H-pyrrole-2,5-dione]: the IC50 was 2.7 µM at protein kinase C beta-2; 9.1 µM at protein kinase C beta-1; greater than 100 µM on protein kinase C alpha; 49 µM on protein kinase C zeta; greater than 100 µM at protein kinase C delta; 90 µM on protein kinase C gamma. In addition, the IC50 was greater than 100 µM on protein kinase C epsilon and 0.042 µM at protein kinase C eta.

Broadly, the IC50 is the concentration that inhibits the measured activity by half.
